This is an account of results in article PMC6973281 (2019).

In assay [1] the test system is 22AG (DNA, G4) AGGGTTAGGGTTAGGGTTAGGG
The assay can be described thus: spectrophotometric titration, independent-site fit. Particulars: K+ 73 mM; K-phosphate buffer pH 7.0, 5 % v/v DMSO, 20 °C; 5 μM compound; unit not given.

The test system is the same in assay [2]. Put plainly: spectrophotometric titration. As to conditions: K+ 73 mM; K-phosphate buffer pH 7.0, 5 % v/v DMSO, 20 °C; 5 μM compound; isotherm could not be fitted.

For `CCOC(=O)c1nc(/N=N/c2nc(C(=O)OCC)c(NCCCN(C)C)s2)sc1NCCCN(C)C`, the “K 22AG” value in assay [1] is given as 2.4×10^4.

Regarding `CCOC(=O)c1csc(/N=N/c2nc(C(=O)OCC)c(NCCCN(C)C)s2)n1`, in assay [2], the binding entry is on record as “weak”.
